One assay concerns the target BACE1 (Homo sapiens, UniProt P56817). Kind of assay: In vitro enzymatic BACE FRET assay. It is filed as biochemical. The procedure:
In Vitro Enzymatic BACE FRET (fluorescence resonance energy transfer) Assay (Enzyme Assay data in the Example Table I)
The assay buffer used in this screen is 0.05 M acetate, pH 4.2, 10% DMSO final, 100 uM genapol (which is a nonionic detergent, below its Critical Micelle Concentration). […] This assay is effectively started by the addition of FRET substrate (50 nM) and the combination is incubated for one hour. The FRET assay is terminated with by addition of Tris buffer, which raises the pH to neutrality, and the fluorescence is determined. The FRET substrate is a peptide with commercially available fluorophore and quencher, on opposite sides of the BACE cleavage site. Proteolytic cleavage of the FRET substrate releases quenching of fluorescence (excitation […] and […]).

Assay [1] relates to Aβ40 in conditioned medium of cells expressing amyloid precursor protein. Kind of assay: In vitro BACE cell-based assay (HEK cell assay, Aβ40 sandwich ELISA). The note with it: Homo sapiens, HEK293; average IC50; Aβ40 after 24 h incubation.

The record followed here is patent publication US8921363B2, “Derivatives of 1 H-isoindol-3-amine, 1 H-iso-aza-indol-3amine, 3,4-dihydroisoquinolin-1-amine, and 1,4-dihydroisoquinolin-3-amine as beta-secretase inhibitors” (Amgen Inc., priority 2010, dated 2014).

Chain of BACE1 (P56817 46-501): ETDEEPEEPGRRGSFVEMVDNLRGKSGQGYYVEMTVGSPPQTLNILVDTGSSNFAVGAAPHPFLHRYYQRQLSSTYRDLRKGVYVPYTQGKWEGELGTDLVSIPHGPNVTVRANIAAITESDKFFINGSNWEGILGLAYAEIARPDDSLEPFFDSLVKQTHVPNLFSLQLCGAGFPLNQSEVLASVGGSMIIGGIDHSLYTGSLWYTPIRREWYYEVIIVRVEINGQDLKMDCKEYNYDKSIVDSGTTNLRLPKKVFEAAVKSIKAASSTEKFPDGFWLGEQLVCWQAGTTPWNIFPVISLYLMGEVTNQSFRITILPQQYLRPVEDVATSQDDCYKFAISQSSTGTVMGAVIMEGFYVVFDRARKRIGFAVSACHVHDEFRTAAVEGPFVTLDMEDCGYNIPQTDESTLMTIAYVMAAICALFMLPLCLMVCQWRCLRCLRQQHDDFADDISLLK

In the case of `NC1=NC2(c3cc(-c4cccnc4F)ccc3Oc3c2cc(-c2ccnc(F)c2)nc3F)c2ccccc21` (racemic) [Example 5e, 1-fluoro-7-(2-fluoropyridin-3-yl)-3-(2-fluoropyridin-4-yl)spiro[chromeno[2,3-c]pyridine-5,1′-isoindol]-3′-amine], the IC50 on BACE1 turned out to be 1 nM; in assay [1] it was 8 nM.

With `NC1=NC2(c3cc(-c4cccnc4F)ccc3Oc3c2cc(C2=CCOCC2)nc3F)c2ccccc21` (racemic) [Example 6, 3-(3,6-dihydro-2H-pyran-4-yl)-1-fluoro-7-(2-fluoropyridin-3-yl)spiro[chromeno[2,3-c]pyridine-5,1′-isoindol]-3′-amine], the values for the IC50 (at BACE1; in assay [1]) were 1 nM and 3 nM, respectively.

Take `NC1=NC2(c3cc(-c4cccnc4F)ccc3Oc3c2cc(C2=CCCOC2)nc3F)c2ccccc21` (racemic) [Example 7, 3-(5,6-dihydro-2H-pyran-3-yl)-1-fluoro-7-(2-fluoropyridin-3-yl)spiro[chromeno[2,3-c]pyridine-5,1′-isoindol]-3′-amine]: the values for the IC50 (on BACE1; in assay [1]) were 1 nM and 13 nM, respectively.

On to `NC1=NC2(c3cc(-c4cccnc4F)ccc3Oc3c2cc(N2CCOCC2)nc3F)c2ccccc21` (racemic) [Example 8, 1-fluoro-7-(2-fluoropyridin-3-yl)-3-morpholinospiro[chromeno[2,3-c]pyridine-5,1′-isoindol]-3′-amine], for which the values for the IC50 (on BACE1; in assay [1]) were 4.2 nM and 14 nM, respectively.

For `NC1=NC2(c3cc(-c4cccnc4F)ccc3Oc3c2cc(N2CCC(F)(F)C2)nc3F)c2ccccc21` (racemic) [Example 9, 3-(3,3-difluoropyrrolidin-1-yl)-1-fluoro-7-(2-fluoropyridin-3-yl)spiro[chromeno[2,3-c]pyridine-5,1′-isoindol]-3′-amine], the half-inhibitory concentration (IC50) was determined as 5.3 nM at BACE1 and 27 nM in assay [1].

Regarding `NC1=NC2(c3cc(-c4cccnc4F)ccc3Oc3cnc(-c4ccnc(F)c4)cc32)c2ccccc21` (racemic) [Example 10, 7-(2-fluoropyridin-3-yl)-3-(2-fluoropyridin-4-yl)spiro[chromeno[2,3-c]pyridine-5,1′-isoindol]-3′-amine], the figures for the IC50 (on BACE1; in assay [1]) were 1 nM and 12 nM, respectively.

As to `NC1=NC2(c3cc(Br)ccc3Oc3cnc(Cl)cc32)c2ccccc21` (racemic) [Example 10c, 7-bromo-3-chlorospiro[chromeno[2,3-c]pyridine-5,1′-isoindol]-3′-amine], the IC50 is 6940 nM at BACE1 and 64.5 nM in assay [1].

For the compound `NC1=NC2(c3cc(-c4cccnc4F)ccc3Oc3cnc(Cl)cc32)c2ccccc21` (racemic) [Example 10d, 3-chloro-7-(2-fluoropyridin-3-yl)spiro[chromeno[2,3-c]pyridine-5,1′-isoindol]-3′-amine], the IC50 at BACE1 worked out at 36 nM; in assay [1], 140 nM.

For the compound `NC1=NC2(c3cc(-c4cccnc4F)ccc3Oc3cnc(C4=CCOCC4)cc32)c2ccccc21` (racemic) [Example 11, 3-(3,6-dihydro-2H-pyran-4-yl)-7-(2-fluoropyridin-3-yl)spiro[chromeno[2,3-c]pyridine-5,1′-isoindol]-3′-amine], the values for the IC50 (at BACE1; in assay [1]) were 3 nM and 12 nM, respectively.

For `NC1=NC2(c3cc(-c4cccnc4F)ccc3Oc3cnc(C4CCOCC4)cc32)c2ccccc21` (racemic) [Example 12, 7-(2-fluoropyridin-3-yl)-3-(tetrahydro-2H-pyran-4-yl)spiro[chromeno[2,3-c]pyridine-5,1′-isoindol]-3′-amine], the IC50 at BACE1 came out at 4 nM; in assay [1], 13 nM.

In the case of `CC(C)(C)C#Cc1cc2c(cn1)Oc1ccc(-c3cccnc3F)cc1C21N=C(N)c2ccccc21` (racemic) [Example 13, 3-(3,3-dimethylbut-1-ynyl)-7-(2-fluoropyridin-3-yl)spiro[chromeno[2,3-c]pyridine-5,1′-isoindol]-3′-amine], the IC50 at BACE1 was 6 nM; in assay [1] it was 70 nM.

For the compound `NC1=NC2(c3cc(-c4cccnc4F)ccc3Oc3c2cc(-c2ccnc(F)c2)nc3F)c2ncccc21` (racemic) [Example 15, 1-fluoro-7-(2-fluoropyridin-3-yl)-3-(2-fluoropyridin-4-yl)spiro[chromeno[2,3-c]pyridine-5,7′-pyrrolo[3,4-b]pyridin]-5′-amine], the IC50 at BACE1 was 1 nM; in assay [1] it was 11 nM.

For the compound `NC1=NC2(c3ccccc3O1)c1cc(-c3cccnc3F)ccc1Oc1cnc(C3=CCCOC3)cc12` (racemic) [Example 18, 3′-(5,6-dihydro-2H-pyran-3-yl)-7′-(2-fluoropyridin-3-yl)spiro[benzo[e][1,3]oxazine-4,5′-chromeno[2,3-c]pyridin]-2-amine], the 50% inhibitory concentration (IC50) was 2 nM on BACE1 and 122 nM in assay [1].

Regarding `NC1=NC2(c3cc(-c4cccnc4F)ccc3Oc3cnc(Cl)cc32)c2ncccc2O1` (racemic) [Example 21, 3-chloro-7-(2-fluoropyridin-3-yl)spiro[chromeno[2,3-c]pyridine-5,4′-pyrido[2,3-e][1,3]oxazin]-2′-amine], the IC50 on BACE1 was 370 nM; in assay [1] it was greater than 10000 nM.

Consider `NC1=NC2(c3cc(-c4cccnc4F)ccc3Oc3cnc(-c4ccnc(F)c4)cc32)c2cccnc2O1` (racemic) [Example 24, 7-(2-fluoropyridin-3-yl)-3-(2-fluoropyridin-4-yl)spiro[chromeno[2,3-c]pyridine-5,4-pyrido[3,2-e][1,3]oxazin]-2′-amine], for which the 50% inhibitory concentration (IC50) at BACE1 is 1.8 nM; in assay [1], 320 nM.

Regarding `NC1=N[C@@]2(c3cc(-c4cccnc4F)ccc3Oc3c2cc(-c2ccnc(F)c2)nc3F)c2ccccc21` (single isomer, unassigned) [Example 5-A], the figures for the IC50 (at BACE1; in assay [1]) were 18.2 nM and 1860 nM, respectively.

`NC1=N[C@]2(c3cc(-c4cccnc4F)ccc3Oc3c2cc(-c2ccnc(F)c2)nc3F)c2ccccc21` (single isomer, unassigned) [Example 5-B]: the IC50 at BACE1 turned out to be 0.6 nM; in assay [1] it was 11 nM.

Take `NC1=N[C@@]2(c3cc(-c4cccnc4F)ccc3Oc3c2cc(C2=CCCOC2)nc3F)c2ccccc21` (single isomer, unassigned) [Example 7-A]: the results for the IC50 (at BACE1; in assay [1]) were 78 nM and 336 nM, respectively.

On to `NC1=N[C@]2(c3cc(-c4cccnc4F)ccc3Oc3cnc(-c4cccnc4F)cc32)c2ccccc21` (single isomer, unassigned) [Example 10-C], for which the figures for the IC50 (at BACE1; in assay [1]) were 900 nM and greater than 10000 nM, respectively.

As to `NC1=N[C@@]2(c3cc(-c4cccnc4F)ccc3Oc3cnc(-c4cccnc4F)cc32)c2ccccc21` (single isomer, unassigned) [Example 10-D], the IC50 (at BACE1; in assay [1]) was greater than 10000 nM throughout.

In the case of `NC1=N[C@]2(c3cc(-c4cccnc4F)ccc3Oc3c2cc(-c2ccnc(F)c2)nc3F)c2cnccc21` (single isomer, unassigned) [Example 14-A], the IC50 was 0.4 nM on BACE1 and 8 nM in assay [1].

For the compound `NC1=N[C@@]2(c3cc(-c4cccnc4F)ccc3Oc3c2cc(-c2ccnc(F)c2)nc3F)c2cnccc21` (single isomer, unassigned) [Example 14-B], the IC50 at BACE1 is 107 nM; in assay [1], 2460 nM.

As for `NC1=NC2(c3ccccc3O1)c1cc(-c3cccnc3F)ccc1Oc1cnc(-c3ccnc(F)c3)cc12` (stereo not drawn) [Example 19, 7′-(2-fluoropyridin-3-yl)-3′-(2-fluoropyridin-4-yl)spiro[benzo[e][1,3]oxazine-4,5′-chromeno[2,3-c]pyridin]-2-amine], the 50% inhibitory concentration (IC50) at BACE1 stood at 2 nM.
